# Assay results from patent publication US20020151467A1 (priority 2000, published 2002).
# Assays:
# Format in all cases: in vivo
# nondiabetic rats [1] = assay: Hypoglycemic efficacy of oral insulin (Musulin) compared to subcutaneous and intraperitoneal injections in rats; conditions: 1.67 unit every 5 minutes
# Method: All rats weighed 50-80 gms, age of the rats was 1 month. Group 1 (control—placebo): 6 rats; Group 2 (Musulin™): 6 rats; Group 3 (Musulin™): 5 rats; Group 4 (Musulin™): 5 rats; Group 5 (intraperitoneal injection): 5 rats; and Group 6 (subcutaneous injection): 5 rats. All rats were fasted 2 hrs before experiments. They were lightly anesthesized by ether. Neck skin was dissected and the jugular vein was exposed. 0.1 ml of blood was drawn at times 0, 5, 10,15, 30, 60, 90, 120, 150, 180, 210, 240, 270, 300 minutes for glucose measurement by Abbott's Precision glucose monitor. In order to ensure the maximal exposure and absorption of Musulin™ in the rats' tiny oral cavities, the rats were fed constant amounts at preset time periods. […] Group 3 received 3.33 units and Group 4 received 6.67 units every 5 minutes.
# All data were analysed using SAS system, Version 6.12. in 2 ways: 1) Simultaneous comparison of multiple groups by Dunnett's t test at 5% significance level. 2) Comparison of slopes of the glucose reduction rate by repeated measures analysis of variance method by the “Mixed Procedure” of the SAS system software.
# nondiabetic rats [2] = assay: Transdermal insulin (Dermulin) vs intraperitoneal insulin injection, blood glucose in rats; conditions: for Percent of glucose reduction: Group 4: intraperitoneal 12.5 u insulin
# Method: All rats weighed 50-80 gms, aged 1 month. Group 1 (control—placebo): 6 rats, Group 2 (Dermulin™, 12.5 u): 5 rats, Group 3 (Dermulin™, 25 u): 5 rats, Group 4 (intraperitoneal injection): 5 rats.
# (§1) All rats were fasted 2 hrs before experiments. They were lightly anesthesized by ether. Neck skin was dissected and jugular vein was exposed. 0.1 ml of blood was drawn at time 0, 5, 10, 15, 30, 60, 90, 120, 150, 180, 210, 240, 270, 300 minutes for glucose measurement by Abbott's Precision glucose monitor. Hair was shaved from the abdomen. Group 2 and Group3 had 12.5 u and 25 u of Dermulin™ applied to the abdominal skin respectively.
# All data were analyzed using SAS system, Version 6.12. in 2 ways: 1) Simultaneous comparison of multiple groups by Dunnett's t test at 5% significance level. 2) Comparison of slopes of the glucose reduction rate by repeated measures analysis of variance method by the “Mixed Procedure” of the SAS system software.
# nondiabetic rats [3] = assay: Transdermal insulin (Dermulin) vs subcutaneous insulin injection, blood glucose in rats; conditions: for Percent of glucose reduction compared to initial levels: Group 4: subcutaneous 12.5 u insulin
# Method: All rats weighed 50-80 gms, aged 1 month. Group 1 (control—placebo): 6 rats, Group 2 (Dermulin™, 12.5 u): 5 rats, Group 3 (Dermulin™, 25 u): 5 rats, Group 4 (subcutaneous injection): 5 rats.
# as §1, with “Group 3” for “Group3”
# All data were analyzed using SAS system, Version 6.12. in 2 ways: 1) Simultaneous comparison of multiple groups by Dunnett's t test at 5% significance level. 2) Comparison of slopes of the glucose reduction rate by repeated measures analysis of variance method by the” Mixed Procedure” of the SAS system software.
# [4] = Group 5: intraperitoneal insulin injection
# [5] = Group 4: single intraperitoneal injection of 12.5 u insulin
# [6] = Group 6: subcutaneous insulin injection
# [7] = Group 4: single subcutaneous injection of 12.5 u insulin
substance,measurement,setting,value
intraperitoneal injection: injection control: insulin given intraperitoneally,Death from hypoglycemia within 300 minutes,nondiabetic rats [1]; [4],80%
same,Rate of glucose reduction at the maximal slope,nondiabetic rats [1]; [4],-0.54 mg/min
same,Statistically significant onset of action,nondiabetic rats [1]; [4],10 min
same,time for 50% rats to achieve 50% glucose reductions,nondiabetic rats [1]; [4],13 min
same,Percent mean reduction of glucose compared to initial levels,"nondiabetic rats [1]; Group 5: intraperitoneal insulin injection, at 60 minutes",30.4 (s.d. 3.8) Percent
same,Percent mean reduction of glucose compared to initial levels,"nondiabetic rats [1]; Group 5: intraperitoneal insulin injection, at 120 minutes",18.7 (s.d. 15.2) Percent
same,Percent mean reduction of glucose compared to initial levels,"nondiabetic rats [1]; Group 5: intraperitoneal insulin injection, at 300 minutes",0 (s.d. 0) Percent
same,Percent of glucose reduction,nondiabetic rats [2]; at 60 minutes,26.1 (s.d. 13.4) Percent
same,Percent of glucose reduction,nondiabetic rats [2]; at 120 minutes,16.5 (s.d. 13) Percent
same,Percent of glucose reduction,nondiabetic rats [2]; at 180 minutes,25.8 (s.d. 14.1) Percent
same,Percent of glucose reduction,nondiabetic rats [2]; at 300 minutes,27.8 (s.d. 33.6) Percent
same,Rate of glucose reduction at the slope,nondiabetic rats [2]; [5],-0.5 mg/min
same,Statistically significant onset of action,nondiabetic rats [2]; [5],5 min
subcutaneous injection: injection control: insulin (Humalog) by subcutaneous injection,Death from hypoglycemia within 300 minutes,nondiabetic rats [1]; [6],100%
same,Rate of glucose reduction at the maximal slope,nondiabetic rats [1]; [6],-0.51 mg/min
same,Statistically significant onset of action,nondiabetic rats [1]; [6],10 min
same,time for 50% rats to achieve 50% glucose reductions,nondiabetic rats [1]; [6],15 min
same,Percent mean reduction of glucose compared to initial levels,"nondiabetic rats [1]; Group 6: subcutaneous insulin injection, at 60 minutes",39.8 (25.5) Percent
same,Percent mean reduction of glucose compared to initial levels,"nondiabetic rats [1]; Group 6: subcutaneous insulin injection, at 120 minutes",25.5 (s.d. 31.7) Percent
same,Percent mean reduction of glucose compared to initial levels,"nondiabetic rats [1]; Group 6: subcutaneous insulin injection, at 300 minutes",41.1%
same,Rate of glucose reduction at the slope between 30-120 min.,nondiabetic rats [3]; [7],-0.5 mg/min
same,Statistically significant onset of action,nondiabetic rats [3]; [7],5 min
same,Percent of glucose reduction compared to initial levels,nondiabetic rats [3]; at 60 minutes,28 (s.d. 13.4) Percent
same,Percent of glucose reduction compared to initial levels,nondiabetic rats [3]; at 120 minutes,21.9 (s.d. 13) Percent
same,Percent of glucose reduction compared to initial levels,nondiabetic rats [3]; at 180 minutes,17.2 (s.d. 14.1) Percent
same,Percent of glucose reduction compared to initial levels,nondiabetic rats [3]; at 300 minutes,0%
